From US20080293820A1, “METHODS FOR IMPROVING PHYSICAL FUNCTION IN FIBROMYALGIA” (Cypress Bioscience, Inc., priority 2007, published 2008)
Counter-ions that a name gives are not always drawn.

Test system: patients who meet the 1990 ACR criteria for fibromyalgia syndrome
Test: Example 2: multicenter, double-blind, randomized, placebo-controlled monotherapy study of milnacipran for treatment of fibromyalgia (1196 patients)
Assay type: in vivo, human
Design: Mean Change from Baseline in PFI SF-36 domain score / Mean Change from Baseline in ROLP SF-36 domain score / Mean Change from Baseline in PAIN SF-36 domain score / Mean Change from Baseline in GHP SF-36 domain score: scale not given here
Details: for Composite Pain: number of responders / Composite Syndrome: number of responders / PGIC Component: number of responders / Pain Component: number of responders / SF36 PCS Component: number of responders: 100 mg (399); for time-weighted average (AUC) of SF-36 PCS Scores, Difference from Placebo / time-weighted average (AUC) of SF-36 PCS Scores, LS Mean: Tx3-Tx15, ANCOVA model
Experimental: The primary outcome was a composite responder analysis assessing response rates of two doses (100 mg/day and 200 mg/day) of milnacipran as compared with placebo at Visit Tx15 (week 15).
This was a multicenter, randomized, double-blind, placebo-controlled three-arm study designed which enrolled 1196 patients who meet the 1990 ACR criteria for fibromyalgia syndrome (history of widespread pain and pain in 11 of 18 tender point sites on digital palpation), as well as the more detailed admission criteria outlined in the protocol.
Patients were randomized to receive placebo, 100 mg/day milnacipran or 200 mg/day milnacipran in a ratio of 1:1:1 (placebo=401 patients, 100 mg/day=399 patients, 200 mg/day=396 patients). The patients assigned to the two active treatment arms received a total of 12 weeks of stable-dose milnacipran exposure after the 3 weeks of dosage escalation steps, for a total of 15 weeks of drug exposure. All randomized medications (placebo and milnacipran) were administered twice a day (BID).
The primary efficacy assessment of this study was a composite responder status defined by three domains of interest evaluated at visit Tx15. The domains measured were
1) pain (measured by an electronic diary in the morning as a daily recall pain score); 2) patient global (measured by the PGIC, 1-7 scale); 3) physical function (measured by the SF-36 PCS).
The secondary efficacy parameters were time-weighted average (AUC) of the weekly average PED morning recall pain scores for Weeks 4 through 15, PGIC, and SF-36 PCS for Visit Tx3 to Visit Tx15.
The physical function domain for response analysis was measured by the Physical Component Summary of SF-36 (SF-36 PCS). The SF-36 is a brief, well-established, self-administered patient questionnaire for the assessment of health status, functional status, and quality of life. The SF-36 measures eight domains of health status: physical functioning, role limitations due to physical problems, bodily pain, general health perceptions, energy/vitality, social functioning, role limitations due to emotional problems, and mental health. An SF-36 PCS score and a mental component summary (MCS) score can be calculated by combining and weighting the various individual scales. The PCS and MCS scores have been standardized to have a mean=50, SD=10 in the general healthy US population (see, e.g., Ware, J., M. Kosinski, and J. Dewey, How to Score Version 2 of the SF-36 Health Survey (Standard & Acute Forms). 3rd ed. 2000, Lincoln, R.I.: QualityMetric).
A patient was classified as a responder for the treatment of pain of fibromyalgia if he or she reached Visit Tx15 and satisfied the following criteria: • Greater than or equal to 30% in pain reduction from baseline; • PGIC rated as “much or very much improved,” (i.e., a score of 1 or 2 on the 1-7 scale at endpoint.)
A patient was classified as a responder for the treatment of FMS if he or she satisfied the responder criteria for the treatment of pain of fibromyalgia and the following additional criterion (at visit Tx15): • Improvement on the SF-36 PCS score from baseline by an amount at least equivalent to the minimal clinically important difference, as defined in the Statistical Analysis Plan.
Table 6 summarizes 3-month results for the Baseline Observation Carried Forward (BOCF), Last Observation Carried Forward (LOCF) and study completer (OC) populations. LOCF is an analysis in which observations are carried forward to the last time point for patients who dropped out. The LOCF analysis treats the carried-forward data as observed data at the last time point. BOCF is an analysis that requires that the patient remain active in the trial to be evaluated for response. If a patient withdrew from the trial for any reason, they were classified as a non-responder irregardless of their pain and global scores at the time of withdrawal. […]

[1] = 100 mg, Visits Tx3-Tx15, LOCF, intent to treat

**Q.** Which results are given for `CCN(CC)C(=O)C1(c2ccccc2)CC1CN` (racemic) [milnacipran, Z-2-aminomethyl-1-phenyl-N,N-diethylcyclopropanecarboxamide hydrochloride]?
**A.** Composite Pain: number of responders (3-months, BOCF): 91; Composite Syndrome: number of responders (3-months, BOCF): 58; PGIC Component: number of responders (3-months, BOCF): 125; Pain Component: number of responders (3-months, BOCF): 124; SF36 PCS Component: number of responders (3-months, BOCF): 108; Composite Pain: number of responders (3-months, LOCF): 103; Composite Syndrome: number of responders (3-months, LOCF): 65; PGIC Component: number of responders (3-months, LOCF): 138; Pain Component: number of responders (3-months, LOCF): 149; SF36 PCS Component: number of responders (3-months, LOCF): 129; physical function in patients with fibromyalgia compared to placebo (in words) (100 mg or 200 mg): surprisingly and effectively improves physical function; Composite Pain: responder rate (100 mg, 3-months, BOCF): (22.81%); Composite Pain: responder rate difference from placebo (unlabelled line) (100 mg, 3-months, BOCF): 6.35%; Composite Syndrome: responder rate (100 mg, 3-months, BOCF): (14.54%); Composite Syndrome: responder rate difference from placebo (unlabelled line) (100 mg, 3-months, BOCF): 5.81%; PGIC Component: responder rate (100 mg, 3-months, BOCF): (31.33%); PGIC Component: responder rate difference from placebo (unlabelled line) (100 mg, 3-months, BOCF): 8.39%; Pain Component: responder rate (100 mg, 3-months, BOCF): (31.08%); Pain Component: responder rate difference from placebo (unlabelled line) (100 mg, 3-months, BOCF): 5.89%; SF36 PCS Component: responder rate (100 mg, 3-months, BOCF): (27.07%); SF36 PCS Component: responder rate difference from placebo (unlabelled line) (100 mg, 3-months, BOCF): 5.62%; Composite Pain: responder rate (100 mg, 3-months, LOCF): (25.81%); Composite Pain: responder rate difference from placebo (unlabelled line) (100 mg, 3-months, LOCF): 7.61%; Composite Syndrome: responder rate (100 mg, 3-months, LOCF): (16.29%); Composite Syndrome: responder rate difference from placebo (unlabelled line) (100 mg, 3-months, LOCF): 6.56%; PGIC Component: responder rate (100 mg, 3-months, LOCF): (34.59%); PGIC Component: responder rate difference from placebo (unlabelled line) (100 mg, 3-months, LOCF): 9.65%; Pain Component: responder rate (100 mg, 3-months, LOCF): (37.34%); Pain Component: responder rate difference from placebo (unlabelled line) (100 mg, 3-months, LOCF): 8.66%; SF36 PCS Component: responder rate (100 mg, 3-months, LOCF): (32.33%); SF36 PCS Component: responder rate difference from placebo (unlabelled line) (100 mg, 3-months, LOCF): 6.89%; Composite Pain: m/n = # of responders/# of patients included (100 mg, 3-months, OC): 91/236; Composite Pain: responder rate (100 mg, 3-months, OC): (38.56%); Composite Pain: responder rate difference from placebo (unlabelled line) (100 mg, 3-months, OC): 13.37%; Composite Syndrome: m/n = # of responders/# of patients included (100 mg, 3-months, OC): 58/236; Composite Syndrome: responder rate (100 mg, 3-months, OC): (24.58%); Composite Syndrome: responder rate difference from placebo (unlabelled line) (100 mg, 3-months, OC): 11.22%; PGIC Component: m/n = # of responders/# of patients included (100 mg, 3-months, OC): 125/263; PGIC Component: responder rate (100 mg, 3-months, OC): (47.53%); PGIC Component: responder rate difference from placebo (unlabelled line) (100 mg, 3-months, OC): 15.70%; Pain Component: m/n = # of responders/# of patients included (100 mg, 3-months, OC): 124/237; Pain Component: responder rate (100 mg, 3-months, OC): (52.32%); Pain Component: responder rate difference from placebo (unlabelled line) (100 mg, 3-months, OC): 13.92%; SF36 PCS Component: m/n = # of responders/# of patients included (100 mg, 3-months, OC): 108/263; SF36 PCS Component: responder rate (100 mg, 3-months, OC): (41.06%); SF36 PCS Component: responder rate difference from placebo (unlabelled line) (100 mg, 3-months, OC): 11.40%; time-weighted average (AUC) of SF-36 PCS Scores, Difference from Placebo (100 mg, LOCF): 16.78; time-weighted average (AUC) of SF-36 PCS Scores, LS Mean (100 mg, LOCF): 425.22; time-weighted average (AUC) of SF-36 PCS Scores, Difference from Placebo (100 mg, OC): 20.22; time-weighted average (AUC) of SF-36 PCS Scores, LS Mean (100 mg, OC): 437.91; Mean Change from Baseline in GHP SF-36 domain score (100 mg, Tx 15, Observed Cohort): 6.0; Mean Change from Baseline in PAIN SF-36 domain score (100 mg, Tx 15, Observed Cohort): 15.9; Mean Change from Baseline in PCS Score at Tx 15 (100 mg, Tx 15, Observed Cohort): 5.0; Mean Change from Baseline in PFI SF-36 domain score (100 mg, Tx 15, Observed Cohort): 6.8; Mean Change from Baseline in ROLP SF-36 domain score (100 mg, Tx 15, Observed Cohort): 13.7; time-weighted average (AUC) of SF-36 PCS Scores, Mean [1]: 423.86; time-weighted average (AUC) of SF-36 PCS Scores, Median [1]: 418.2; time-weighted average (AUC) of SF-36 PCS Scores, Mean (100 mg, Visits Tx3-Tx15, OC, intent to treat): 435.76
